Results on two molecules are retold here after patent US20180318275A1, “COMBINATION THERAPY USING PI3K INHIBITOR AND MDM2 INHIBITOR” (Novartis AG, priority 2015, published 2018).

Common to all, as to test: Cell proliferation (cell count by microscopy), Example 3
Holding throughout (type): cell-based

In one test the test system is GP2d. The settings on record: single agent, 72 h, cell count relative to DMSO, unit (micromolar, top dose 10 μM). As for the experimental part: (§1) COMPOUNDS A, B and C were dissolved in 100% DMSO (Sigma, Catalog number D2650) at concentrations of 20 mM and stored at −20° C. until use. Compounds were arrayed in drug master plates (Greiner, Catalog number 788876) and serially diluted 3-fold (7 steps) at 2000× concentration.
(§2) To test the effect of the combination of COMPOUND A, COMPOUND B, and COMPOUND C on cell proliferation cells were plated in black 384-well microplates with clear bottom (Matrix/Thermo Scientific, Catalog number 4332) in 50 μL media per well at cell densities between 500 and 1250 cells/well (Table 1 above) and allowed to incubate at 37 degrees, 5% CO2 for 24 h. After 24 h one 384-well plate per cell line was prepared for cell counting by microscopy (see below) without receiving treatment (=‘baseline’). The other cell plates were treated by transferring 25 nL of the 2000× compound from drug master plates using an ATS acoustic liquid dispenser (ECD Biosystems) and resulting in a final 1× concentration. COMPOUND A was used over a final concentration range of 13 nM-10 μM, COMPOUND B was used over a final concentration range of 13 nM-10 μM, and COMPOUND C was used over a final concentration range of 13 nM-10 μM (7 1:3 dilution steps). In order to assess the effect of the triple combination all individual COMPOUNDS (A, B, C), all three pair wise combinations (A+B, A+C, B+C), and the triple combination (A+B+C) were tested in the same experiment. Pair wise combinations and the triple combination were tested at a fixed ratio of 1:1 (for drug pairs) and 1:1:1 (for the drug triple) at each dilution resulting in 7 combination conditions per treatment. […] After compound addition 50 nL of 2 mM CellEvent Caspase-3/7 Green Detection Reagent (ThermoFisher, Catalog number C10423) were added to one of the three replicates using the HP D300 Digital Dispenser (Tecan). Caspase 3/7 induction was measured as a proxy for apoptosis induced by the treatments. Cells were treated for 72 h to 96 h depending on their doubling time (Table 1), and Caspase 3/7 activation was measured every 24 h by microscopy using an InCell Analyzer 2000 (GE Healthcare) equipped with a 4× objective and FITC excitation/emission filters. At the end of the treatment cells were prepared for cell counting by microscopy. Cells were fixed and permeabilised for 45 minutes in 4% PFA (Electron Microscopy Sciences, Catalog number 15714), 0.12% TX-100 (Electron Microscopy Sciences, Catalog number 22140) in PBS (Boston Bioproducts, Catalog number BM-220). After washing cells three times with PBS their DNA was stained for 30 minutes with Hoechst 33342 (ThermoFisher, Catalog number H3570) at a final concentration of 4 μg/mL. Cells were washed three times with PBS and then plates were heat-sealed using a PlateLoc (Agilent Technologies) with aluminum seals (Agilent Technologies, Catalog number 06644-001) and stored at 4° C. until imaging. All cells per well/treatment were captured in a single image by fluorescence microscopy using an InCell Analyzer 2000 (GE Healthcare) equipped with a 4× objective and DAPI excitation/emission filters.
(§3) Images were analyzed after adapting previously described methods (Horn, Sandmann et al. 2011, Nat. Methods 8(4): 341-346) and using the Bioconductor package EBImage in R (Pau, Fuchs et al. 2010, Bioinformatics 26(7):979-981). Objects in both channels, DAPI (for Hoechst/DNA) and FITC (for Caspase 3/7), were segmented separately by adaptive thresholding and counted. A threshold for Caspase 3/7 positive objects was defined manually per cell line after comparing negative controls (DMSO) and positive controls (Staurosporine). By analyzing 17 additional object/nuclei features in the DNA channel (shape and intensity features) debris/fragmented nuclei were identified. To this end per cell line the distributions of the additional features between positive controls (Staurosporine) and negative controls (DMSO) were compared manually. […]

A further test has as its system RKO. The following applies: Homo sapiens, single agent, 72 h, cell count relative to DMSO. As for the experimental part: as §1, §2, §3
A further test deals with LS-180. The following applies: Homo sapiens, LS180; LS-160 (so in the source), single agent, 72 h, cell count relative to DMSO. As for the experimental part: as §1, §2, §3
A further test concerns LoVo. The following applies: Homo sapiens, single agent, 96 h, cell count relative to DMSO. As for the experimental part: as §1, §2, §3
The subject of a further test is HCT-116. The following applies: Homo sapiens; HCT-116, single agent, 72 h, cell count relative to DMSO. As for the experimental part:
as §1, §2, §3

Molecules are shown by their SMILES.

The IC50 is the concentration that gives 50% inhibition. Turning to `Cc1nc(NC(=O)N2CCC[C@H]2C(N)=O)sc1-c1ccnc(C(C)(C)C(F)(F)F)c1` [COMPOUND A, (S)-Pyrrolidine-1,2-dicarboxylic acid 2-amide 1-({4-methyl-5-[2-(2,2,2-trifluoro-1,1-dimethyl-ethyl)-pyridin-4-yl]-thiazol-2-yl}-amide)], the IC50 in the test with GP2d is 500 nM; in the test on RKO, 3900 nM; with LS-180 it was greater than 10000 nM; in the test on LoVo, greater than 10000 nM; with HCT-116 it was 9.8 µM.

Regarding `COc1cc2c(cc1OC(C)C)[C@H](c1ccc(Cl)cc1)N(c1ccc(N(C)C[C@H]3CC[C@H](N4CCN(C)C(=O)C4)CC3)cc1)C(=O)C2` [COMPOUND B, (S)-1-(4-Chloro-phenyl)-7-isopropoxy-6-methoxy-2-(4-{methyl-[4-(4-methyl-3-oxo-piperazin-1-yl)-trans-cyclohexylmethyl]-amino}-phenyl)-1,4-dihydro-2H-isoquinolin-3-one], the IC50 is 800 nM with GP2d; 1200 nM with RKO; 700 nM in the test on LS-180; 600 nM in the test on LoVo; 0.1 µM with HCT-116.
